Laboratory results published in ChEMBL document CHEMBL1201862, “PubChem BioAssay data set” (2004).
Active and inactive are the calls of the source.

Tests used:
Protein RecA = biological target: T1, Protein RecA (Mycobacterium tuberculosis, UniProt P9WHJ3); assay: Fluorescence Cell-Free Homogeneous Dose Retest to Identify Inhibitors of RecA-Intein Splicing Activity. [Related pubchem assays (depositor defined):AID2097, AID2223, AID489010, AID492950]; assay type: functional
T1 sequence (P9WHJ3 whole entry): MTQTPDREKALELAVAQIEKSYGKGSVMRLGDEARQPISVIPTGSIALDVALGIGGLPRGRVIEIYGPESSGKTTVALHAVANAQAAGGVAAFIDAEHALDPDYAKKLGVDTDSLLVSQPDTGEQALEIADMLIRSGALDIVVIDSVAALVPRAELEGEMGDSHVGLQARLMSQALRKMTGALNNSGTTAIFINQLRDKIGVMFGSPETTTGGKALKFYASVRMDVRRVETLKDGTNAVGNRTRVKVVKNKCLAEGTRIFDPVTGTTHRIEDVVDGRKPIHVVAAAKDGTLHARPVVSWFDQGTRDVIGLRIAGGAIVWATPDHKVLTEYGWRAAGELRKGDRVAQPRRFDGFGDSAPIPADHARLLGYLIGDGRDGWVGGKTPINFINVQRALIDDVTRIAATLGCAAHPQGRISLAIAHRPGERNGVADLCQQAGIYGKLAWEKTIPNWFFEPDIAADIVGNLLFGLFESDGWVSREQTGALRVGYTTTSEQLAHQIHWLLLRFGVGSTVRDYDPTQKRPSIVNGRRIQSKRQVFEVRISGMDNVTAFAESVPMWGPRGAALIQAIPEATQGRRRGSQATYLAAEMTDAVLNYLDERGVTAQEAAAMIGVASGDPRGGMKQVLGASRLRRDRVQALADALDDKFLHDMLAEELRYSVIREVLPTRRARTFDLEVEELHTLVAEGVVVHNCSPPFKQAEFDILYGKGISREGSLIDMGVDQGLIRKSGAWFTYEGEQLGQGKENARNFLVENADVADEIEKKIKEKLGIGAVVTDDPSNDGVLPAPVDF

[1] = biological target: T2, Apoptotic protease-activating factor 1 (Homo sapiens, UniProt O14727); assay type: functional
T2 sequence (O14727 whole entry): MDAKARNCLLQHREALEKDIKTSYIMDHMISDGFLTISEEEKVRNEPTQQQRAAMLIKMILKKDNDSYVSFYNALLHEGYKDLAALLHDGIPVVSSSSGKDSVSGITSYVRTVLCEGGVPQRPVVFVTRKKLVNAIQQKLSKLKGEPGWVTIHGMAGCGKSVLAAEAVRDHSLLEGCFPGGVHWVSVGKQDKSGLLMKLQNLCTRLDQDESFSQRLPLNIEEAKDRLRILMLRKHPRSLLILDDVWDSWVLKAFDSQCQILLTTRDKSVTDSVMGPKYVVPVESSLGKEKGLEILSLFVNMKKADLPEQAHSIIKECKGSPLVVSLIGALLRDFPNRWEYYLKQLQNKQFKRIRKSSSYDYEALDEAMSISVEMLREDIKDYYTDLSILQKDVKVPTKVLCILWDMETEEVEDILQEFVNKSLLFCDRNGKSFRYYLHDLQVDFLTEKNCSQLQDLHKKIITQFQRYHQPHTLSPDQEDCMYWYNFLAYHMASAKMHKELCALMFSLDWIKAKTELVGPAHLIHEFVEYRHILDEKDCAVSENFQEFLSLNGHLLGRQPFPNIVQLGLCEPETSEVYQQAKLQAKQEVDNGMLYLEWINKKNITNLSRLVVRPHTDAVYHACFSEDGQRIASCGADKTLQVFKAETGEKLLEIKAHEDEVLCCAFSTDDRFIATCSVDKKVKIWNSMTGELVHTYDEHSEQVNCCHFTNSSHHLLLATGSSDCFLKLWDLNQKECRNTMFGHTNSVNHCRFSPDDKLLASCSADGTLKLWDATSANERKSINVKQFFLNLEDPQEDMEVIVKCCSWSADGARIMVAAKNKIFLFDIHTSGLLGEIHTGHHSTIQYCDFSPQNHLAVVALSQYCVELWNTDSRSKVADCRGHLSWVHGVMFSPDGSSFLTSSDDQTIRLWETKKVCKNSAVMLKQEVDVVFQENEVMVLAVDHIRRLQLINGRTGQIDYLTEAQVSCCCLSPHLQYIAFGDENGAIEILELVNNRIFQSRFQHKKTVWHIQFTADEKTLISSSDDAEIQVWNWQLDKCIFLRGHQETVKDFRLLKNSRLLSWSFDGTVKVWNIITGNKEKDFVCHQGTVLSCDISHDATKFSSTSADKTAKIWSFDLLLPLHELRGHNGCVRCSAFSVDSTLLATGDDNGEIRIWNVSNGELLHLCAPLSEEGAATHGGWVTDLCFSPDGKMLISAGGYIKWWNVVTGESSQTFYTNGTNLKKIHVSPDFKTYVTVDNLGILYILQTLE

[2] = biological target: T3, Tyrosyl-DNA phosphodiesterase 2 (Homo sapiens, UniProt O95551); assay: human TDP2 enzyme inhibitors, dose response, biochemical, epi absorbance, IC50 (AID 743297)
T3 sequence (O95551 whole entry): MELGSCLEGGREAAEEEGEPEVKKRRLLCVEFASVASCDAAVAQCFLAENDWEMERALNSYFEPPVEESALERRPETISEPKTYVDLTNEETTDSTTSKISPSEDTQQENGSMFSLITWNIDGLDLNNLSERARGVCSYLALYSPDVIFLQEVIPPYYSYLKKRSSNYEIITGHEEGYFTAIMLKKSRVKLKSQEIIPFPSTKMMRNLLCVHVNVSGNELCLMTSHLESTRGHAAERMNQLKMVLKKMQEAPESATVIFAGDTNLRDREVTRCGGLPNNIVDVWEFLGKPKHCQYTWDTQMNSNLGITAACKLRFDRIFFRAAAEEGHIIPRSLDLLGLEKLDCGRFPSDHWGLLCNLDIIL

| SMILES | EC50 (Protein RecA) | IC50 [1] | IC50 [2] |
| --- | --- | --- | --- |
| COC(=O)[C@@H]1[C@@H](C(=O)OC)C2(c3ccccc3-c3ccccc32)N(c2ccc(Cl)cc2)N1C#N | 5.38 µM (active) |  |  |
| COC(CNC(=O)c1ccc2c3c(onc13)-c1ccccc1C2=O)OC | 5.99 µM (active) | 25.2 µM (active) |  |
| COc1ccc(OC)c(Nc2cc3ccccc3c(O)n2)c1 | 1.34 µM (active) | 2.5 µM (active) | 24.9 µM (inactive) |
| Nc1ccc2c(c1)C(=O)C(=O)c1ccccc1-2 | 6.36 µM (active) | 0.768 µM (active) | 1.34 µM (active) |
| Cc1ccc2nc(/C(C#N)=C\c3ccc([N+](=O)[O-])o3)[nH]c2c1 | 0.454 µM (active) |  |  |
| COc1cc(-c2ccc(Nc3ccccc3C(=O)O)c(OC)c2)ccc1Nc1ccccc1C(=O)O |  | 26.7 µM (active) |  |
| O=C(O)c1ccc(NC2=C/C(=N/S(=O)(=O)c3ccccc3)c3ccccc3C2=O)cc1 |  | 3.15 µM (active) | 1.88 µM (active) |
